Laboratory results from US20230390251A1, “METHODS OF TREATING RIBONUCLEOTIDE REDUCTASE-RELATED DISEASES WITH A RIBONUCLEOTIDE REDUCTASE INHIBITOR” (TAIHO PHARMACEUTICAL CO., LTD., priority 2020, published 2023).

What was measured:
A673 cells = assay: Caspase-Glo 3/7 caspase induction assay in A673 cells treated with siRNA against SLFN11; assay type: cell-based; conditions: 10 micro mol/L, 24 h; A673 cells transfected with siRNA against SLFN11
Description: A673 cells, NCI-H460 cells and CFPAC-1 cells were transfected with 1 nM siRNAs for 24 h using Lipofectaminet®RNAiMAX Reagent (Thermo Fisher Scientific Inc.) and then re-seeded onto a 96-well plate for cell proliferation assay and caspase induction assay and onto dishes for immunoblotting analysis. siRNAs were obtained from Thermo Fisher Scientific Inc. as follows: Silencer® Select Negative Control #1 siRNA (#4390843 used as siControl), SLFN11 Silencer® Select Pre-designed siRNA (#s40703 used as siSLFN11-1, #s40704 as siSLFN11-2, and #s40702 as siSLFN11-3).
Caspase induction assay was performed in accordance with conventional methods, available in Hasako., et al., ibid. Briefly, the cells with siRNAs for 24 h were seeded onto 96 well plate, incubated for 24 h, and then treated with Compound A for 24 h. Caspase induction was detected by using the Caspase-Glo 3/7 assay (Promega).

[1] = system: Human acute myelocytic leukemia (AML) cell line MV-4-11 cells; assay: Anti-tumor effect (relative tumor volume) in nude mice implanted with MV-4-11 cells; assay type: in vivo; conditions: for effect of reducing tumor volume (RTV) compared to the Control Group: Day 15
Description: Anti-tumor Effect and body weight change in QOD Dosing Regimen Human acute myelocytic leukemia (AML) cell line MV-4-11 cells (American Type Culture Collection CRL-9591™) were implanted in the right thorax of male nude mice (CLEA Japan, Inc.). After implantation of the tumor, the major axis (mm) and minor axis (mm) of the tumor were measured, and tumor volume (TV) was calculated for each mouse. Then, the mice were assigned to the following groups, Control group (◯), Continuous Dosing Group (●: 100 mg/kg/day; ⋄: 150 mg/kg/day) and QOD Dosing Group (▴: 200 mg/kg/day; ♦: 300 mg/kg/day), so that the average TV of each group was equivalent. The day in which the grouping (n=5) was conducted was taken as Day 0.
5-chloro-2-(N-((1S,2R)-2-(6-fluoro-2,3-dimethylphenyl)-1-(5-oxo-4,5-dihydro-1,3,4-oxadiazol-2-yl)propyl)sulfamoyl)benzamide (Compound A) was suspended in 5 mg/mL hypromellose solution to provide appropriate test samples for 100 mg/kg, 150 mg/kg. 200 mg/kg, and 300 mg/kg dosing regimen. Animals of the Control group were not treated.
To mice in the Continuous Dosing Group, 100 mg/kg/day or 150 mg/kg/day of Compound A was orally administered once daily from Day 1 to Day 14. The total dosage for mice in the Continuous Dosing Group administered 100 mg/kg/day (Group C-1) was 1400 mg/kg, and the total dosage for mice in the Continuous Dosing Group administered 150 mg/kg/day (Group C-2) was 2100 mg/kg.
To mice in the QOD Dosing Group, 200 mg/kg/day or 300 mg/kg/day of Compound A was orally administered once every other day for two weeks (Days 1, 3, 5, 7, 9, 11 and 13). The total dosage for mice in the QOD Dosing Group administered 200 mg/kg/day (Group QOD-1) was 1400 mg/kg, and the total dosage for mice in the QOD Dosing Group administered 300 mg/kg/day (Group QOD-2) was 2100 mg/kg.
On Days 4, 8, 11 and 15, using the following formula: TV (mm^3)=(major axis×minor axis^2)/2, relative tumor volume (RTV) was calculated as an index of anti-tumor effect during the dosing period for each group (FIG. 1).
Similar to Example 1, anti-tumor effect and body weight change were studied in mice harboring MV-4-11 cells among the following five groups: Control group (◯), Continuous Dosing Group (●: 100 mg/kg/day; ⋄: 150 mg/kg/day) and QW Dosing Group (▪: 700 mg/kg/day; x: 1050 mg/kg/day).
To mice in the QW Dosing Group, 700 mg/kg/day or 1050 mg/kg/day of Compound A was orally administered once per week for two weeks (Days 1 and 8). The total dosage for mice in the QW Dosing Group administered 700 mg/kg/day (Group QW-1) was 1400 mg/kg, and the total dosage for mice in the QW Dosing Group administered 1050 mg/kg/day (Group QW-2) was 2100 mg/kg.
(§1) Similar to Example 1, anti-tumor effect and body weight change were studied in mice harboring MV-4-11 cells among the following five groups: Control group (◯), Continuous Dosing Group (●: 100 mg/kg/day; ⋄: 150 mg/kg/day) and 3QW Dosing Group 1 (▴: 233 mg/kg/day; ♦: 350 mg/kg/day).
To mice in the 3QW Dosing Group 1, 233 mg/kg/day or 350 mg/kg/day of Compound A was orally administered three days consecutively per week for two weeks (Days 1-3 and 8-10). The total dosage for mice in the 3QW Dosing Group 1 administered 233 mg/kg/day (Group 3QW1-1) was 1400 mg/kg, and the total dosage for mice in the 3QW Dosing Group 1 administered 350 mg/kg/day (Group 3QW1-2) was 2100 mg/kg.
as §1, with “Anti-tumor Effect and body weight change in 3QW Dosing Regimen 2 Similar” for “Similar”, “group (0),” for “group (◯),”, “Group 2” for “Group 1”
To mice in the 3QW Dosing Group 2, 233 mg/kg/day or 350 mg/kg/day of Compound A was orally administered every other day three times per week for two weeks (Days 1, 3, 5, 8, 10 and 12). […]

Cc1ccc(F)c([C@@H](C)[C@H](NS(=O)(=O)c2ccc(Cl)cc2C(N)=O)c2n[nH]c(=O)o2)c1C [Compound A, 5-chloro-2-(N-((1S,2R)-2-(6-fluoro-2,3-dimethylphenyl)-1-(5-oxo-4,5-dihydro-1,3,4-oxadiazol-2-yl)propyl)sulfamoyl)benzamide]
compound-induced caspase-3/7 activation after SLFN11 knockdown (A673 cells): suppression
effect of reducing tumor volume, Group 3QW1-2 compared with Group C-2 ([1]; 3QW (consecutive) 350 mg/kg/day vs continuous 150 mg/kg/day, total dosage 2100 mg/kg, not statistically significant): similar
effect of reducing tumor volume, Group 3QW2-1 compared with Group C-1 ([1]; 3QW (every other day) 233 mg/kg/day vs continuous 100 mg/kg/day, total dosage 1400 mg/kg, t-test P<0.05): higher than Group C-1
effect of reducing tumor volume, Group 3QW2-2 compared with Group C-2 ([1]; 3QW (every other day) 350 mg/kg/day vs continuous 150 mg/kg/day, total dosage 2100 mg/kg, not statistically significant): similar
effect of reducing tumor volume (RTV) compared to the Control Group ([1]; 3QW Dosing Group 1, 233 or 350 mg/kg/day orally Days 1-3 and 8-10): showed the effect of reducing tumor volume compared to the Control Group
effect of reducing tumor volume (RTV) compared to the Control Group ([1]; 3QW Dosing Group 2, 233 or 350 mg/kg/day orally Days 1, 3, 5, 8, 10 and 12): showed the effect of reducing tumor volume compared to the Control Group
effect of reducing tumor volume, Group 5QW2-2 compared with Group C-2 ([1]; 5QW (2 on/1 off/3 on/1 off) 210 mg/kg/day vs continuous 150 mg/kg/day, total dosage 2100 mg/kg, t-test p<0.05): higher than Group C-2 with a statistically significant difference
effect of reducing tumor volume, Group 5QW1-2 compared with Group C-2 ([1]; 5QW (consecutive) 210 mg/kg/day vs continuous 150 mg/kg/day, total dosage 2100 mg/kg, not statistically significant): similar
effect of reducing tumor volume (RTV) compared to the Control Group ([1]; 5QW Dosing Group 1, 140 or 210 mg/kg/day orally Days 1-5 and 8-12): showed the effect of reducing tumor volume compared to the Control Group
effect of reducing tumor volume (RTV) compared to the Control Group ([1]; 5QW Dosing Group 2, 140 or 210 mg/kg/day orally Days 1-2, 4-6, 8-9 and 11-13): showed the effect of reducing tumor volume compared to the Control Group
effect of reducing tumor volume (RTV) compared to the Control Group ([1]; Continuous Dosing Group, 100 or 150 mg/kg/day orally once daily Day 1 to Day 14): showed the effect of reducing tumor volume compared to the Control Group
effect of reducing tumor volume, Group QOD-1 compared with Group C-1 ([1]; QOD 200 mg/kg/day vs continuous 100 mg/kg/day, total dosage 1400 mg/kg, t-test p<0.05): higher than Group C-1
effect of reducing tumor volume, Group QOD-2 compared with Group C-2 ([1]; QOD 300 mg/kg/day vs continuous 150 mg/kg/day, total dosage 2100 mg/kg, not statistically significant): similar
effect of reducing tumor volume (RTV) compared to the Control Group ([1]; QOD Dosing Group, 200 or 300 mg/kg/day orally Days 1, 3, 5, 7, 9, 11 and 13): showed the effect of reducing tumor volume compared to the Control Group
effect of reducing tumor volume, Group QW-2 compared with Group C-2 ([1]; QW 1050 mg/kg/day vs continuous 150 mg/kg/day, total dosage 2100 mg/kg, not statistically significant): similar
effect of reducing tumor volume (RTV) compared to the Control Group ([1]; QW Dosing Group, 700 or 1050 mg/kg/day orally Days 1 and 8): showed the effect of reducing tumor volume compared to the Control Group
